From patent publication US20260007133A1, “HERBICIDAL COMPOSITION COMPRISING AZINE COMPOUNDS” (BASF SE, priority 2022, published 2026)

Experiments:
Type in all cases: in vivo
Abutilon theophrasti [1] = experiment: Greenhouse pre-emergence (PRE) herbicidal test on ABUTH; conditions: 20 DAT; for % activity solo application: ABUTH
Summary of the method: (§1)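 Seeds were sown per species in pots of loamy sand with about 3.0% humus, treated pre-emergence, watered and hooded until rooted. Plants grew at 10-25° C or 20-35° C depending on species. Damage was scored 0-100 (100 = no emergence or above-ground parts destroyed) at 20 DAT.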

Amaranthus retroflexus [2] = experiment: Greenhouse pre-emergence (PRE) herbicidal test on AMARE; conditions: 20 DAT; for % activity solo application: AMARE
Summary of the method: as §1

Ambrosia artemisiifolia = experiment: Greenhouse pre-emergence (PRE) herbicidal test on AMBEL; conditions: 20 DAT; for % activity solo application: AMBEL
Commelina benghalensis = experiment: Greenhouse pre-emergence (PRE) herbicidal test on COMBE; conditions: 20 DAT
Summary of the method: as §1

Euphorbia heterophylla [3] = experiment: Greenhouse pre-emergence (PRE) herbicidal test on EPHHL; conditions: 20 DAT; for % activity solo application: EPHHL
Summary of the method: as §1

Lolium multiflorum = experiment: Greenhouse pre-emergence (PRE) herbicidal test on LOLMU; conditions: 20 DAT; for % activity solo application: LOLMU
Summary of the method: as §1

Setaria viridis = experiment: Greenhouse pre-emergence (PRE) herbicidal test on SETVI; conditions: 20 DAT; for % activity solo application: SETVI
Summary of the method: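 Seeds sown per species in pots of loamy sand with approx. 3.0% humus; compounds suspended or emulsified in water were sprayed via fine nozzles directly after sowing. Pots were watered and hooded until rooted, held at 10-25° C. or 20-35° C. by species, and scored 0–100 (100 = no emergence/complete destruction) 20 DAT.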

Abutilon theophrasti [4] = experiment: Greenhouse post-emergence (POST) herbicidal test on ABUTH; conditions: 20 DAT; for % activity solo application: ABUTH
Summary of the method: (§2)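 Greenhouse weeds, raised in pots of humus-containing loamy sand, receive a water-based spray of the actives once 3 to 15 cm tall. Damage is rated visually from 0 (none) to 100 (above-ground parts destroyed) 20 days after treatment.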

Amaranthus retroflexus [5] = experiment: Greenhouse post-emergence (POST) herbicidal test on AMARE; conditions: 20 DAT; for % activity solo application: AMARE
Summary of the method: as §2

Echinochloa crus-galli [6] = experiment: Greenhouse post-emergence (POST) herbicidal test on ECHCG; conditions: Echinochloa crus-galli, post-emergence, 480 h, ECHCG POST, 20 DAT, use rate 25 gai/ha
Summary of the method: as §2

Euphorbia heterophylla [7] = experiment: Greenhouse post-emergence (POST) herbicidal test on EPHHL; conditions: 20 DAT; for % activity solo application: EPHHL
Summary of the method: as §2

Geranium pusillum = experiment: Greenhouse post-emergence (POST) herbicidal test on GERPU; conditions: Geranium pusillum, post-emergence, 480 h, 20 DAT
Summary of the method: as §2

Ipomoea hederacea = experiment: Greenhouse post-emergence (POST) herbicidal test on IPOHE; conditions: 20 DAT; for % activity solo application: IPOHE
Description: The culture containers used were plastic pots containing loamy sand with approximately 3.0% of humus as substrate. The seeds of the test plants were sown separately for each species.
For the post-emergence treatment, the test plants were grown to a plant height of from 3 to 15 cm, depending on the plant habit, and only then treated with the active compounds which had been suspended or emulsified in water. To this end, the test plants were either sown directly, and grown in the same containers, or they were first grown separately as seedlings and transplanted into the test containers a few days prior to treatment.
Depending on the species, the plants were kept at 10-25° C. and 20-35° C., respectively.
The test period extended over 2 to 4 weeks. During this time, the plants were tended and their response to the individual treatments was evaluated.
Evaluation was carried out using a scale from 0 to 100. 100 means no emergence of the plants, or complete destruction of at least the above-ground parts, and 0 means no damage or normal course of growth. A good herbicidal activity is given at values of at least 70, and very good herbicidal activity is given at values of at least 85.
If not stated differently, the respective components A and B, and if appropriate, C were formulated as a 5% by weight strength emulsion concentrate and, with addition of the amount of solvent system, introduced into the spray liquor used for applying the active compound.
As indicated application was either post emergent (POST) at the respective growth stage (GS) of the weed (BBCH code), or pre-emergent (PRE).
Assessment was 20 days after treatment (DAT).

Alopecurus myosuroides = experiment: Greenhouse pre-emergence (PRE) herbicidal test on ALOMY; conditions: PRE, 20 DAT; for % activity solo application: ALOMY
Summary of the method: as §1

Echinochloa crus-galli [8] = experiment: Greenhouse pre-emergence (PRE) herbicidal test on ECHCG; conditions: PRE, ECHCG, 20 DAT
Digitaria sanguinalis = experiment: Greenhouse post-emergence (POST) herbicidal test on DIGSA; conditions: POST, DIGSA, 20 DAT
Summary of the method: as §2

## CC(C)N(C(=O)COc1nnc(C(F)(F)F)s1)c1ccc(F)cc1 [Flufenacet, flufenacet]
Abutilon theophrasti [1]; Abutilon theophrasti, pre-emergence, 480 h, ABUTH PRE, use rate 12.5 gai/ha
  inhibition at 12.5 g/ha: 0%
Amaranthus retroflexus [2]; Amaranthus retroflexus, pre-emergence, 480 h, AMARE PRE, use rate 12.5 gai/ha
  inhibition at 12.5 g/ha: 0%
Ambrosia artemisiifolia; Ambrosia artemisiifolia, pre-emergence, 480 h, AMBEL PRE, use rate 12.5 gai/ha
  inhibition at 12.5 g/ha: 0%
Commelina benghalensis; Commelina benghalensis, pre-emergence, 480 h, COMBE PRE, use rate 12.5 gai/ha
  inhibition at 12.5 g/ha: 10%
Commelina benghalensis; Commelina benghalensis, pre-emergence, 480 h, COMBE PRE, use rate 25 gai/ha
  inhibition at 25 g/ha: 35%
Euphorbia heterophylla [3]; Euphorbia heterophylla, pre-emergence, 480 h, EPHHL PRE, use rate 12.5 gai/ha
  inhibition at 12.5 g/ha: 10%
Euphorbia heterophylla [3]; Euphorbia heterophylla, pre-emergence, 480 h, EPHHL PRE, use rate 25 gai/ha
  inhibition at 25 g/ha: 10%
Lolium multiflorum; Lolium multiflorum, pre-emergence, 480 h, LOLMU PRE, use rate 12.5 gai/ha
  inhibition at 12.5 g/ha: 0%
Lolium multiflorum; Lolium multiflorum, pre-emergence, 480 h, LOLMU PRE, use rate 25 gai/ha
  inhibition at 25 g/ha: 35%
Setaria viridis; Setaria viridis, pre-emergence, 480 h, SETVI PRE, use rate 25 gai/ha
  inhibition at 25 g/ha: 65%
Abutilon theophrasti [4]; Abutilon theophrasti, post-emergence, 480 h, ABUTH POST, use rate 25 gai/ha
  inhibition at 25 g/ha: 0%
Amaranthus retroflexus [5]; Amaranthus retroflexus, post-emergence, 480 h, AMARE POST, use rate 12.5 gai/ha
  inhibition at 12.5 g/ha: 15%
Amaranthus retroflexus [5]; Amaranthus retroflexus, post-emergence, 480 h, AMARE POST, use rate 25 gai/ha
  inhibition at 25 g/ha: 25%
Echinochloa crus-galli [6]
  inhibition at 25 g/ha: 85%
Euphorbia heterophylla [7]; Euphorbia heterophylla, post-emergence, 480 h, EPHHL POST, use rate 12.5 gai/ha
  inhibition at 12.5 g/ha: 0%
Geranium pusillum; GERPU POST, use rate 12.5 gai/ha
  inhibition at 12.5 g/ha: 5%
Ipomoea hederacea; Ipomoea hederacea, post-emergence, 480 h, IPOHE POST, use rate 12.5 gai/ha
  inhibition at 12.5 g/ha: 0%
Ipomoea hederacea; Ipomoea hederacea, post-emergence, 480 h, IPOHE POST, use rate 25 gai/ha
  inhibition at 25 g/ha: 0%

## CCc1cccc(C)c1N(C(=O)CCl)[C@@H](C)COC [S-Metolachlor, S-metolachlor]
Abutilon theophrasti [1]; PRE, 25 gai/ha
  % activity solo application: 0%
Abutilon theophrasti [1]; PRE, 50 gai/ha
  % activity solo application: 0%
Alopecurus myosuroides; 25 gai/ha
  % activity solo application: 0%
Alopecurus myosuroides; 50 gai/ha
  % activity solo application: 0%
Amaranthus retroflexus [2]; PRE, 25 gai/ha
  % activity solo application: 20%
Amaranthus retroflexus [2]; PRE, 50 gai/ha
  % activity solo application: 20%
Ambrosia artemisiifolia; PRE, 25 gai/ha
  % activity solo application: 0%
Ambrosia artemisiifolia; PRE, 50 gai/ha
  % activity solo application: 0%
Commelina benghalensis; PRE, COMBE, 25 gai/ha
  % activity solo application: 10%
Echinochloa crus-galli [8]; 25 gai/ha
  % activity solo application: 20%
Echinochloa crus-galli [8]; 50 gai/ha
  % activity solo application: 50%
Euphorbia heterophylla [3]; PRE, 25 gai/ha
  % activity solo application: 0%
Euphorbia heterophylla [3]; PRE, 50 gai/ha
  % activity solo application: 0%
Lolium multiflorum; PRE, 25 gai/ha
  % activity solo application: 0%
Lolium multiflorum; PRE, 50 gai/ha
  % activity solo application: 0%
Setaria viridis; PRE, 25 gai/ha
  % activity solo application: 10%
Setaria viridis; PRE, 50 gai/ha
  % activity solo application: 75%
Abutilon theophrasti [4]; POST, 25 gai/ha
  % activity solo application: 0%
Abutilon theophrasti [4]; POST, 50 gai/ha
  % activity solo application: 0%
Amaranthus retroflexus [5]; POST, 25 gai/ha
  % activity solo application: 5%
Amaranthus retroflexus [5]; POST, 50 gai/ha
  % activity solo application: 60%
Digitaria sanguinalis; 25 gai/ha
  % activity solo application: 0%
Digitaria sanguinalis; 50 gai/ha
  % activity solo application: 10%
Euphorbia heterophylla [7]; POST, 25 gai/ha
  % activity solo application: 0%
Euphorbia heterophylla [7]; POST, 50 gai/ha
  % activity solo application: 5%
Ipomoea hederacea; POST, 25 gai/ha
  % activity solo application: 0%
Ipomoea hederacea; POST, 50 gai/ha
  % activity solo application: 0%

## CCNc1nc(Cl)nc(NC(C)(C)C)n1 [Terbutylazine]
Abutilon theophrasti [1]; Abutilon theophrasti, pre-emergence, 480 h, PRE, 15.6 gai/ha
  pest or weed control at 15.6 g/ha: 0%
Abutilon theophrasti [1]; Abutilon theophrasti, pre-emergence, 480 h, PRE, 62.5 gai/ha
  pest or weed control at 62.5 g/ha: 0%
Alopecurus myosuroides; Alopecurus myosuroides, pre-emergence, 480 h, 15.6 gai/ha
  pest or weed control at 15.6 g/ha: 0%
Alopecurus myosuroides; Alopecurus myosuroides, pre-emergence, 480 h, 62.5 gai/ha
  pest or weed control at 62.5 g/ha: 0%
Amaranthus retroflexus [2]; Amaranthus retroflexus, pre-emergence, 480 h, PRE, 62.5 gai/ha
  pest or weed control at 62.5 g/ha: 0%
Ambrosia artemisiifolia; Ambrosia artemisiifolia, pre-emergence, 480 h, PRE, 15.6 gai/ha
  pest or weed control at 15.6 g/ha: 0%
Commelina benghalensis; Commelina benghalensis, pre-emergence, 480 h, PRE, 15.6 gai/ha
  pest or weed control at 15.6 g/ha: 0%
Commelina benghalensis; Commelina benghalensis, pre-emergence, 480 h, PRE, 62.5 gai/ha
  pest or weed control at 62.5 g/ha: 0%
Euphorbia heterophylla [3]; Euphorbia heterophylla, pre-emergence, 480 h, PRE, 62.5 gai/ha
  pest or weed control at 62.5 g/ha: 0%
Lolium multiflorum; Lolium multiflorum, pre-emergence, 480 h, PRE, 15.6 gai/ha
  pest or weed control at 15.6 g/ha: 0%
Abutilon theophrasti [4]; Abutilon theophrasti, post-emergence, 480 h, POST, 62.5 gai/ha
  pest or weed control at 62.5 g/ha: 0%
Amaranthus retroflexus [5]; Amaranthus retroflexus, post-emergence, 480 h, POST, 62.5 gai/ha
  pest or weed control at 62.5 g/ha: 60%
Ipomoea hederacea; Ipomoea hederacea, post-emergence, 480 h, POST, 15.6 gai/ha
  pest or weed control at 15.6 g/ha: 0%

## CC(C)N(C(=O)SCC(Cl)=C(Cl)Cl)C(C)C [Tri-Allate, Tri-allate]
Abutilon theophrasti [1]; Abutilon theophrasti, pre-emergence, 480 h, PRE, 600 gai/ha
  pest or weed control at 600 g/ha: 10%
Alopecurus myosuroides; Alopecurus myosuroides, pre-emergence, 480 h, 1200 gai/ha
  pest or weed control at 1200 g/ha: 0%
Amaranthus retroflexus [2]; Amaranthus retroflexus, pre-emergence, 480 h, PRE, 600 gai/ha
  pest or weed control at 600 g/ha: 10%
Amaranthus retroflexus [2]; Amaranthus retroflexus, pre-emergence, 480 h, PRE, 1200 gai/ha
  pest or weed control at 1200 g/ha: 10%
Ambrosia artemisiifolia; Ambrosia artemisiifolia, pre-emergence, 480 h, PRE, 600 gai/ha
  pest or weed control at 600 g/ha: 10%
Ambrosia artemisiifolia; Ambrosia artemisiifolia, pre-emergence, 480 h, PRE, 1200 gai/ha
  pest or weed control at 1200 g/ha: 25%
Commelina benghalensis; Commelina benghalensis, pre-emergence, 480 h, PRE, 600 gai/ha
  pest or weed control at 600 g/ha: 0%
Euphorbia heterophylla [3]; Euphorbia heterophylla, pre-emergence, 480 h, PRE, 600 gai/ha
  pest or weed control at 600 g/ha: 10%
Euphorbia heterophylla [3]; Euphorbia heterophylla, pre-emergence, 480 h, PRE, 1200 gai/ha
  pest or weed control at 1200 g/ha: 10%
Lolium multiflorum; Lolium multiflorum, pre-emergence, 480 h, PRE, 600 gai/ha
  pest or weed control at 600 g/ha: 0%
Lolium multiflorum; Lolium multiflorum, pre-emergence, 480 h, PRE, 1200 gai/ha
  pest or weed control at 1200 g/ha: 10%
Setaria viridis; Setaria viridis, pre-emergence, 480 h, PRE, 600 gai/ha
  pest or weed control at 600 g/ha: 0%
Abutilon theophrasti [4]; Abutilon theophrasti, post-emergence, 480 h, POST, 1200 gai/ha
  pest or weed control at 1200 g/ha: 0%
Amaranthus retroflexus [5]; Amaranthus retroflexus, post-emergence, 480 h, POST, 600 gai/ha
  pest or weed control at 600 g/ha: 25%
Amaranthus retroflexus [5]; Amaranthus retroflexus, post-emergence, 480 h, POST, 1200 gai/ha
  pest or weed control at 1200 g/ha: 45%
Euphorbia heterophylla [7]; Euphorbia heterophylla, post-emergence, 480 h, POST, 600 gai/ha
  pest or weed control at 600 g/ha: 10%
Euphorbia heterophylla [7]; Euphorbia heterophylla, post-emergence, 480 h, POST, 1200 gai/ha
  pest or weed control at 1200 g/ha: 10%
Geranium pusillum; POST, 600 gai/ha
  pest or weed control at 600 g/ha: 10%
Ipomoea hederacea; Ipomoea hederacea, post-emergence, 480 h, POST, 600 gai/ha
  pest or weed control at 600 g/ha: 10%
Ipomoea hederacea; Ipomoea hederacea, post-emergence, 480 h, POST, 1200 gai/ha
  pest or weed control at 1200 g/ha: 0%
